Assay results from patent US8088775B2, “Pharmaceutical composition for treating hair loss” (priority 2004, dated 2012).
Several values for one entry are separate records, joined by “and”; a condition that tells them apart may be missing. Identical values can stand only once.

Legend:
[1] = system: prostate glands of castrated male SD rats; assay: Anti-androgenic active effects in castrated male SD rats: weight of prostate glands after TP or DHTP inducement; type: in vivo; settings: hormone alone hypodermic (TP 10 μg or DHTP 20 μg) + vehicle oral, one week, solvent control 23.3±1.5 mg
Description: In-Vivo Experiment for the Observation of Anti-Androgenic Active Effects of Castrated Male SD Rats (1)
(§1) Each compound is administered orally continuously for one week according to the method of administration shown in Table 1, prostate glands are removed from the rats in each group while watching, and their weights are measured.

[2] = Body weight of castrated male SD rats after one week; settings: hormone alone (TP 10 μg or DHTP 20 μg) + vehicle oral, solvent control 122.1
Description: as §1

Row | SMILES | Average weight of prostate glands, prostatic hyperplasia inducement group [1] | Average body weight, inducement group [2]
1 | CCC(=O)O[C@H]1CC[C@H]2[C@@H]3CCC4=CC(=O)CC[C@]4(C)[C@H]3CC[C@]12C [TP, testosterone propionate] | 63.6 ± 3.2 mg and 63.6 mg | 
2 | CCC(=O)O[C@H]1CC[C@H]2[C@@H]3CC[C@H]4CC(=O)CC[C@]4(C)[C@H]3CC[C@]12C [DHTP, dihydrotestosterone propionate] | 58.4 ± 2.0 mg and 58.4 mg | 118.7
